# According to ChEMBL document CHEMBL1130331, “Synthesis and hepatoprotective effects of soyasapogenol B derivatives” (1997):
# System: HepG2
# Experiment: Tested in vitro for hepatoprotective effect of 20 ug/ml of compound on cell growth and lesions in Hep G2 cells treated with aflatoxin B1 (10 e -5 M)
# Format: functional, Homo sapiens
row,SMILES,Protection
1,CC1(C)[C@@H](O[C@H]2O[C@H](C(=O)O)[C@@H](O)[C@H](O)[C@H]2O[C@@H]2O[C@H](C(=O)O)[C@@H](O)[C@H](O)[C@H]2O)CC[C@]2(C)[C@H]3C(=O)C=C4[C@@H]5C[C@@](C)(C(=O)O)CC[C@]5(C)CC[C@@]4(C)[C@]3(C)CC[C@@H]12 [GLYCYRRHIZIN],15%

# System: HepG2
# Experiment: Tested in vitro for hepatoprotective effect of 10 ug/ml of compound on cell growth and lesions in Hep G2 cells treated with aflatoxin B1 (10 e -5 M)
# Format: functional, Homo sapiens
row,SMILES,Protection
1,CC1(C)C[C@@H](O)[C@]2(C)CC[C@]3(C)C(=CCC4[C@@]5(C)CC[C@H](O)[C@](C)(CO)C5CC[C@]43C)[C@@H]2C1 (stereo partly drawn),14%
2,COC[C@]1(C)C2CC[C@]3(C)C(CC=C4[C@@H]5CC(C)(C)C[C@@H](O)[C@]5(C)CC[C@]43C)[C@@]2(C)CC[C@@H]1O (stereo partly drawn),48%
3,CO[C@H]1CC[C@@]2(C)C(CC[C@]3(C)C2CC=C2[C@@H]4CC(C)(C)C[C@@H](O)[C@]4(C)CC[C@]23C)[C@@]1(C)CO (stereo partly drawn),2%
4,CC1(C)C[C@@H](O)[C@]2(C)CC[C@]3(C)C(=CCC4[C@@]5(C)CC[C@H](O)[C@](C)(C=O)C5CC[C@]43C)[C@@H]2C1 (stereo partly drawn),32%
5,CC(=O)OC[C@]1(C)C2CC[C@]3(C)C(CC=C4[C@@H]5CC(C)(C)C[C@@H](O)[C@]5(C)CC[C@]43C)[C@@]2(C)CC[C@@H]1O (stereo partly drawn),45%
6,CO[C@@H]1CC(C)(C)C[C@H]2C3=CCC4[C@@]5(C)CC[C@H](O)[C@](C)(CO)C5CC[C@@]4(C)[C@]3(C)CC[C@@]12C (stereo partly drawn),9%
7,CC1(C)C[C@@H](O)[C@]2(C)CC[C@]3(C)C(=CCC4[C@@]5(C)CCC[C@](C)(CO)C5CC[C@]43C)[C@@H]2C1 (stereo partly drawn),0%
8,CC1(C)C[C@@H](O)[C@]2(C)CC[C@]3(C)C(=CCC4[C@@]5(C)CC[C@H](O)[C@](C)(C(=O)O)C5CC[C@]43C)[C@@H]2C1 (stereo partly drawn),44%
9,CC1(C)C[C@@H](O)[C@]2(C)CC[C@]3(C)C(=CCC4[C@@]5(C)CC[C@H](O)C(C)(C)C5CC[C@]43C)[C@@H]2C1 (stereo partly drawn),19%
10,CC1(C)CC[C@]2(C)CC[C@]3(C)C(=CCC4[C@@]5(C)CC[C@H](O)[C@](C)(CO)C5CC[C@]43C)[C@@H]2C1 (stereo partly drawn),33%
11,CC(=O)O[C@@H]1CC(C)(C)C[C@H]2C3=CCC4[C@@]5(C)CC[C@H](O)[C@](C)(CO)C5CC[C@@]4(C)[C@]3(C)CC[C@@]12C (stereo partly drawn),11%
12,CC(=O)O[C@H]1CC[C@@]2(C)C(CC[C@]3(C)C2CC=C2[C@@H]4CC(C)(C)C[C@@H](O)[C@]4(C)CC[C@]23C)[C@@]1(C)CO (stereo partly drawn),0%
